# Assay results: patent US5744471A, “Pyridazion quinoline compounds” (Zeneca Limited, priority 1993, dated 1998)
# Where a name gives a salt, the structure may show the parent alone. Read-outs that look alike come from different tables or passages of the source.
# Tests used:
# [1] = test system: NMDA-induced excitatory response of red nucleus cells; assay: Red Nucleus Test (Test C); type: in vivo; conditions: Rattus norvegicus, iv, read-out: ID50 (NMDA-induced excitatory response of red nucleus cells)
# Method: The purpose of this test is to determine the effects of intravenously administered glycine antagonists on the NMDA-induced excitatory response of red nucleus cells.
# The procedure for the red nucleus test is as follows. Rats are anesthetized with chloral hydrate (400 mg/kg ip) and the femoral vein is catheterized for iv drug administration. Five-barrel micropipettes are stereotaxically positioned in the red nucleus. Typically, three to four of the five barrels are filled as follows: the recording barrel with 2M potassium citrate, the current balancing barrel with 4M NaCl, the drug barrel with 25 mM NMDA, and another drug barrel with 2.5 mM quisqualic acid (QA is only used in selectivity studies). NHDA is iontophoretically applied with an ejection current that is adjusted depending on the sensitivity of each individual red nucleus cell. The NMDA is cycled on and off (usually 30-60 sec. on and 60-120 sec. off) and the firing rate of the cell during each period is recorded. Once the baseline firing rate of the cell has been established, the test drug is administered iv. The effect of the drug on the NMDA-induced excitatory response of the red nucleus cell can be both qualitatively and quantitatively evaluated from the recordings and the raw data accumulated.
# [2] = target: T1, glycine receptor of the NMDA receptor complex (Rattus norvegicus, UniProt P35439); assay: [3H]-glycine binding assay (Test A; in-vitro glycine receptor assay); parameters: species or system rat (male Sprague-Dawley)
# T1 construct: Freshly dissected cortices and hippocampi are homogenized in 0.32 M sucrose; from tissue; host or cells: rat cerebral cortex and hippocampus, synaptic membranes (male Sprague-Dawley)
# Method: The actions of compounds according to the invention as antagonists at the giycine receptor of the NMDA receptor complex can be shown by one or more standard tests such as the [^3 H]-glycine binding assay (Test A) and by tests in vivo such as ischemia induced by carotid occlusion in the gerbil model (Test B). In addition to these tests, compounds of the invention are assayed in the red nucleus test (Test C) and in the Rat Middle Cerebral Artery test (Test D). These tests confirm that compounds of the invention are NMDA receptor antagonists in vitro and in vivo.
# In the [^3 H]-glycine binding assay, neuronal synaptic membranes are prepared from adult (about 250 g) male Sprague-Dawley rats. Freshly dissected cortices and hippocampi are homogenized in 0.32 M sucrose (110 mg/mL). Synaptosomes are isolated by centrifugation (1000 xg, 10 min), the supernatant is pelleted (20,000 xg, 20 min) and resuspended in double-distilled water. The suspension was centrifuged for 20 minutes at 8,000 xg. The resulting supernatant and buffy coat are washed twice (48,000 xg, 10 mins, resuspension in double-deionized water). The final pellet is quickly frozen (dry ice/ethanol bath) under double-deionized water and stored at -70° C.
# On the day of the experiment, thawed synaptic membranes are homogenized with a Brinkmann Polytron (tm, Brinkmann Instruments, Westbury, N.Y.) tissue homogenizer in 50 millimolar tris(hydroxymethyl)aminomethane citrate, pH 7.1. The membranes are incubated with 0.04% Sufact-AMPS X100 (tm, Pierce, Rockford, Ill.) in buffer for 20 minutes at 37° C. and washed six times by centrifugation (48,000 xg, 10 min) and resuspended in buffer. The final pellet is homogenized at 200 mg wet weight/mL of the buffer for the binding assay.
# For [^3 H]-glycine binding at the N-methyl-D-aspartate receptor, 20 nanomolar [^3 H]-glycine (40-60 Ci/mmol, New England Nuclear, Boston, Mass.) is incubated with the membranes suspended in 50 millimolar tris (hydroxymethyl)aminomethane citrate, pH 7.1 for 30 minutes at 4° C. Glycine, 1 millimolar, is used to define the nonspecific binding. Bound [^3 H]-glycine is isolated from free using a Brandel (Biomedical Research and Development Laboratories, Gaithersburg, Md.) cell harvester for vacuum filtration over glass fiber filters (Whatman GF/B from Brandel, Gaithersburg, Md.) presoaked in 0.025% polyethylenimine. The samples retained on the glass fiber filters are rinsed 3 times with a total of 2.5 mL ice cold buffer. Radioactivity is estimated by liquid scintillation counting. IC50 values are obtained from a least-squares regression of a logit-log transformation of the data. […] The other examples disclosed herein are glycine antagonists.
# [3] = test system: neuronal damage in the hippocampus; assay: gerbil ischemic model, bilateral carotid occlusion (Test B); type: in vivo, Mongolian gerbils; conditions: 10 mg/Kg ip, 45 minutes before and 5 minutes after occlusion
# Method: When testing in vivo using the gerbil ischemic model, adult female Mongolian gerbils (50-70 g) are anesthetized with 2 to 3% halothane. The bilateral common carotid arteries at the neck are exposed and occluded with microaneurysm clips. After 10 min (unless specified), the clips are removed and the blood flow through the carotid arteries is restored and the skin is sutured. Test compounds are administered intraperitoneally both pre- and post-occlusion, for example 45 minutes before and 5 minutes after occlusion of the carotid arteries. Sham-operated animals are treated in the same manner except that the arteries are not clamped. Gross behavioral observations along with motor activity are recorded for 2 hr on the first (24 hr) day following the occlusion. After 4 days, subjects are sacrificed (decapitation), brains are removed, fixed, sectioned and stained with hematoxylin/eosin and cresyl violet.
# The brain sections are rated for neuronal damage in the hippocampus using the following rating scale:
# 1=slight damage (up to 25%)--restricted to CAI/subiculum border
# 2=moderate damage (up to 50%)--obvious damage, restricted to less than half of CA1 field […]
# Sections (7 micron) are evaluated from each brain. […] The average brain damage rating score for each group is recorded, and the damage scores of the drug treated group are compared to the vehicle-treated group using Wilcoxon-Rank Sum test.
# [4] = 20 nanomolar [3H]-glycine, rat synaptic membranes, pH 7.1, 4° C., read-out: IC50 in the [3H]-glycine binding assay
# [5] = read-out: IC50 in the [3H]Gly test
structure (smiles),measurement,setting,value
C/C(=C\C(N)C(=O)O)CP(=O)(O)O (stereo not shown) [CGP 37849],ED50,[1],1.7 mg/kg
"O=c1c2ccc(Cl)cc2[nH]c2c(=O)n(CCO)nc(O)c12 [Example 1, 7-Chloro-1-hydroxy-3-(2-hydroxyethyl)-3,4,5,10-tetrahydropyridazino[4,5-b]quinoline-4,10-dione]",IC50,[2]; [4],40 µM
O=C(NCCn1nc(O)c2[nH]c3cc(Cl)ccc3c(=O)c2c1=O)c1ccccc1 [2-ethylbenzamidederivative],glycine receptor antagonist activity,[2]; result in words,active as a glycine receptor antagonist
"CC(=O)OCCn1nc(O)c2c(=O)c3ccc(Cl)cc3[nH]c2c1=O [3-(2-Acetoxyethyl), 3-(2-Acetoxyethyl)7-chloro-4-hydroxy-1,2,5,10-tetrahydropyridazino[4,5-]quinoline-1,10-dione]",IC50,[2]; [5],> 100 µM
"O=c1c2ccc(Cl)cc2[nH]c2c(=O)n(-c3ccccc3)nc(O)c12 [Example 5, 7-Chloro-1-hydroxy-3-phenyl-3,4,5,10-tetrahydropyridazino[4,5-b]-quinoline-4,10-dione, choline salt]",activity in the in-vitro glycine receptor assay,[2]; result in words,inactive
NC1CCN(O)C1=O (stereo not shown) [HA-966],ED50,[1]; reference agents,7.9 mg/kg
"COc1ccc(-n2nc(O)c3c(=O)c4ccc(Cl)cc4[nH]c3c2=O)cc1 [Example 7, 7-Chloro-1-hydroxy-3-(4-methoxyphenyl)-3,4,5,10-tetrahydropyridazino[4,5-b]quinoline-4,10-dione]",IC50,[2]; [5],> 100 µM
same,activity in the in-vitro glycine receptor assay,[2]; result in words,inactive
"O=c1c2ccc(Cl)cc2[nH]c2c(O)nn(-c3ccc(O)cc3)c(=O)c12 [Example 10, 7-Chloro-4-hydroxy-2-(4-hydroxyphenyl)-1,2,5,10-tetrahydropyridazino[4,5-b]quinoline-1,10-dione]",neuroprotection (relative to sham-operated control),[3],over 80%
same,IC50,[2]; [4],0.12 µM
"O=c1c2ccc(Cl)cc2[nH]c2c(=O)n(-c3ccc(O)cc3)nc(O)c12 [Example 9, 7-Chloro-1-hy droxy-3-(4-hydroxyphenyl)-3,4,5,10-tetrahydropyridazino[4,5-b]quinoline-4,10-dione]",IC50,[2]; [5],> 100 µM
same,activity in the in-vitro glycine receptor assay,[2]; result in words,inactive
"O=C1c2ccccc2C(=O)N1CCn1nc(O)c2[nH]c3cc(Cl)ccc3c(=O)c2c1=O [Example 4, 7-Chloro-4-hydroxy-2-(2-phthalimidoethyl)-1,2,5,10-tetrahydropyridazino[4,5-b]quinoline-1,10-dione]",neuroprotection (relative to sham-operated control),[3],35%
"Cc1ccc(-n2nc(O)c3c(=O)c4ccc(Cl)cc4[nH]c3c2=O)cc1 [Example 18, 7-Chloro-1-hydroxy-3-(4-methylphenyl)-3,4,5,10-tetrahydropyridazino[4,5-b]quinoline-4,10-dione]",activity in the in-vitro glycine receptor assay,[2]; result in words,inactive
"CC(C)c1ccc(-n2nc(O)c3c(=O)c4ccc(Cl)cc4[nH]c3c2=O)cc1 [Example 20, 7-Chloro-1-hydroxy-3-(4-isopropylphenyl)-3,4,5,10-tetrahydropyridazino[4,5- ]-quinoline-4,10-dione]",activity in the in-vitro glycine receptor assay,[2]; result in words,inactive
"O=c1c2ccc(Cl)cc2[nH]c2c(=O)n(-c3ccc(Cl)cc3)nc(O)c12 [Example 16, 7-Chloro-1-hydroxy-3-(4-chlorophenyl)-3,4,5,10-tetrahydropyridazino[4,5-b]quinoline-4,10-dione]",activity in the in-vitro glycine receptor assay,[2]; result in words,inactive
